{"source": "patent US9468642B2", "about": "“Imidazopyrazines” (BAYER INTELLECTUAL PROPERTY GMBH, priority 2011, dated 2016)"}
{"molecular_target": "human kinase Mps-1 (Homo sapiens (Human), UniProt P33981)", "sequence (P33981 whole entry)": "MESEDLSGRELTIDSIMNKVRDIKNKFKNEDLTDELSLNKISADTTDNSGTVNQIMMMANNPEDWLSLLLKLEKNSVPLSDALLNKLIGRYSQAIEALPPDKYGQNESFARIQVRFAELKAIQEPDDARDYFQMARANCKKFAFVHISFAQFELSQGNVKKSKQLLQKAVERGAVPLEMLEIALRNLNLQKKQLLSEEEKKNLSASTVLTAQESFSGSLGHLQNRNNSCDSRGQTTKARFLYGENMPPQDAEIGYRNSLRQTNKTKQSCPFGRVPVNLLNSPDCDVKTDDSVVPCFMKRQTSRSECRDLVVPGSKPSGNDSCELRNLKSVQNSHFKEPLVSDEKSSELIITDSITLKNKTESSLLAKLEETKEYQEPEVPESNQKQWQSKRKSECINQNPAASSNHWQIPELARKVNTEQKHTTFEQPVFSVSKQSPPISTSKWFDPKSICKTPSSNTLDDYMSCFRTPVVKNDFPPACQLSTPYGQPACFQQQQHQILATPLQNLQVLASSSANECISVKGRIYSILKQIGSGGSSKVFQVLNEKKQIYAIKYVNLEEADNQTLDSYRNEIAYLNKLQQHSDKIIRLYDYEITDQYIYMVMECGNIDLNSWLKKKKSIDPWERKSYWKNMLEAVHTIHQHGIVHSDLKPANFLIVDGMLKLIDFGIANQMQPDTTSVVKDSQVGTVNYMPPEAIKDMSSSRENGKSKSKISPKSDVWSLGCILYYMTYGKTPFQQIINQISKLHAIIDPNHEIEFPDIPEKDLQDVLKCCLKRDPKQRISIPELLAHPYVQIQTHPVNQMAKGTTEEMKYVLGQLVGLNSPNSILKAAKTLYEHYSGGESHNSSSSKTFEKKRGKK", "assay": "Mps-1 Kinase Assay (TR-FRET)", "format": "biochemical", "conditions": "N-terminally GST-tagged human full length recombinant Mps-1; 10 μM ATP; 1 μM peptide substrate; 60 min at 22° C.; read-out: Mps1 IC50", "method": "The human kinase Mps-1 phosphorylates a biotinylated substrate peptide. Detection of the phosphorylated product is achieved by time-resolved fluorescence resonance energy transfer (TR-FRET) from Europium-labelled anti-phospho-Serine/Threonine antibody as donor to streptavidin labelled with cross-linked allophycocyanin (SA-XLent) as acceptor. Compounds are tested for their inhibition of the kinase activity.\nN-terminally GST-tagged human full length recombinant Mps-1 kinase (purchased from Invitrogen, Karslruhe, Germany, cat. no PV4071) was used. As substrate for the kinase reaction a biotinylated peptide of the amino-acid sequence […] (C-terminus in amide form, purchased from Biosynthan GmbH, Berlin) was used.\nThe concentration of Mps-1 in the assay was adjusted to the activity of the enzyme lot and was chosen appropriate to have the assay in the linear range, typical enzyme concentrations were in the range of about 1 nM (final conc. in the 5 μl assay volume).\nThe resulting mixture was incubated 1 h at 22° C. to allow the binding of the phosphorylated peptide to the anti-phospho(Ser/Thr)-Europium-antibody. Subsequently the amount of phosphorylated substrate was evaluated by measurement of the resonance energy transfer from the Europium-labelled anti-phospho(Ser/Thr) antibody to the Streptavidin-XLent.", "units": {"IC50": "µM"}}
{"smiles": "CS(=O)(=NC(=O)C(F)(F)F)c1nc(-c2ccccc2)cn2c(-c3ccc(C(=O)NC4CC4)cc3)cnc12", "note": "(racemic) [Example 15, (RS) N-cyclopropyl-4-{8-[S-methyl-N-(trifluoroacetyl)sulfonimidoyl]-6-phenylimidazo[1,2-a]pyrazin-3-yl}benzamide]", "IC50": 0.0052}
{"smiles": "CC(C)CC[S+]([O-])c1nc(-c2ccccc2)cn2c(-c3ccc(C(=O)NC4CC4)cc3)cnc12", "note": "(racemic) [Example 24A, (RS) N-cyclopropyl-4-{8-[(3-methylbutyl)sulfinyl]-6-phenylimidazo[1,2-a]pyrazin-3-yl}benzamide]", "IC50": 0.0145}
{"smiles": "CC(C)CCSc1nc(-c2ccccc2)cn2c(-c3ccc(C(=O)NC4CC4)cc3)cnc12", "note": "[Example 23, N-cyclopropyl-4-{8-[(3-methylbutyl)sulfanyl]-6-phenylimidazo[1,2-a]pyrazin-3-yl}benzamide]", "IC50": 0.0252}
{"smiles": "CCCCSc1nc(-c2ccccc2)cn2c(-c3ccc(C(=O)NC4CC4)cc3)cnc12", "note": "[Example 8, 4-[8-(Butylsulfanyl)-6-phenylimidazo[1,2-a]pyrazin-3-yl]-N-cyclopropylbenzamide]", "IC50": 0.0263}
{"smiles": "O=C(NC1CC1)c1ccc(-c2cnc3c(SCc4ccco4)nc(-c4ccccc4)cn23)cc1", "note": "[Example 27, N-cyclopropyl-4-{8-[(2-furylmethyl)sulfanyl]-6-phenylimidazo[1,2-a]pyrazin-3-yl}benzamide]", "IC50": 0.0408}
{"smiles": "CCCS(=O)(=O)c1nc(-c2ccccc2)cn2c(-c3ccc(C(=O)NC4CC4)cc3)cnc12", "note": "[Example 7B, N-Cyclopropyl-4-[6-phenyl-8-(propylsulfonyl)imidazo[1,2-a]pyrazin-3-yl]benzamide]", "IC50": 0.0101}
{"smiles": "CC(C)CSc1nc(-c2ccccc2)cn2c(-c3ccc(C(=O)NC4CC4)cc3)cnc12", "note": "[Example 21, N-cyclopropyl-4-[8-(isobutylsulfanyl)-6-phenylimidazo[1,2-a]pyrazin-3-yl]benzamide]", "IC50": 0.0132}
{"smiles": "O=C(NC1CC1)c1ccc(-c2cnc3c(S(=O)(=O)CCCCO)nc(-c4ccccc4)cn23)cc1", "note": "[Example 36, N-cyclopropyl-4-{8-[(4-hydroxybutyl)sulfonyl]-6-phenylimidazo[1,2-a]pyrazin-3-yl}benzamide]", "IC50": 0.0051}
{"smiles": "CCCSc1nc(-c2ccccc2)cn2c(-c3ccc(C(=O)NC4CC4)cc3)cnc12", "note": "[Example 6, N-Cyclopropyl-4-[6-phenyl-8-(propylsulfanyl)imidazo[1,2-a]pyrazin-3-yl]benzamide]", "IC50": 0.011}
